# Values of other authors, collected in patent US20250152551A1, “DOCETAXEL COMPOSITIONS AND METHODS” (ZHUHAI BEIHAI BIOTECH CO., LTD., priority 2022, published 2025).
# Legend:
# [1] = tested on: microtubule depolymerization
structure (smiles),measurement,setting,value
CC(=O)O[C@@]12CO[C@@H]1C[C@H](O)[C@@]1(C)C(=O)[C@H](O)C3=C(C)[C@@H](OC(=O)[C@H](O)[C@@H](NC(=O)OC(C)(C)C)c4ccccc4)C[C@@](O)([C@@H](OC(=O)c4ccccc4)[C@H]21)C3(C)C [docetaxel],Solubility in water,,practically insoluble in water
same,Potency in inhibiting microtubule depolymerization relative to paclitaxel,[1],about twice as potent as paclitaxel
